How the values were obtained:
gastric lesions in rats = details: lesions induced by taurocholate acid, aspirin or indomethacin, J. Pharmacol. Exp. Ther. 1992, 263(1), 374-380; cited from earlier work
EP1 receptors [1] = molecular target: T1, EP1 receptors (Homo sapiens, UniProt P34995); test: human EP1 calcium mobilisation assay (CHO-K1 cells, FLIPR, PGE2); type: cell-based; design: expressed in transfected cells; host or cells: CHO-K1 cells, pCIN vector; details: free bases or sodium salts; averages of a number of experiments; read-out: functional pKi value, human EP1 calcium mobilisation assay (converted)
T1 sequence (P34995 1-402): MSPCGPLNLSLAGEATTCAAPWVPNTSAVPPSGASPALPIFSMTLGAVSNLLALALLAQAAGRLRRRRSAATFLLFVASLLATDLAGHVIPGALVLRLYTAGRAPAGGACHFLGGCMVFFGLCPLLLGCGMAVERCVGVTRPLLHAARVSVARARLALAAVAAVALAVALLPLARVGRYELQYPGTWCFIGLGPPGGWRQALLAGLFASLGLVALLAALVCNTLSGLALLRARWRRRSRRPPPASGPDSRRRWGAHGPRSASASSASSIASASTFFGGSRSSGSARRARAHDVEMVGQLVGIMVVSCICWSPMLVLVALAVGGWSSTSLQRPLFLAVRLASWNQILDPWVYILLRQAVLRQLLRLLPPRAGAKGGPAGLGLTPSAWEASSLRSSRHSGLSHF
In short: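 CHO-K1 cells stably transfected with human EP1 cDNA, loaded with Fluo-4 AM after 24 h culture at 37° C. Compounds added first, then PGE2; antagonism read as inhibition of PGE2-induced intracellular calcium rise on FLIPR. pIC50 taken as concentration giving half-maximal inhibition, from curve fitting.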

EP1 receptors [2] = molecular target: T1, EP1 receptors; test: Binding assay for the human prostanoid EP1 receptor (competition with [3H]-PGE2); design: expressed in transfected cells; host or cells: CHO-K1 cells, membrane fraction; details: [3H]-PGE2 competition; averages of a number of experiments; read-out: pIC50 value, binding assay for the human prostanoid EP1 receptor (converted)
In short: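 Competition against 3 nM (final) tritiated PGE2 at 30° C for 30 min, pH 6 MES assay buffer, using membranes of stably transfected CHO-K1 cells. Filter-retained counts by scintillation; nonlinear curve fitting gives concentration inhibiting 50% of specific binding.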

[3] = system: rat model of chronic constriction injury; details: Anesthesia and Analgesia 2001, 93, 1012-7; cited from earlier work
[4] = system: rodent model of post-operative pain; details: Anesthesia and Analgesia 2001, 92, 233-238; cited from earlier work

Structure (SMILES) | gastric lesions (gastric lesions in rats) | Ki (EP1 receptors [1]) | IC50 (EP1 receptors [2]) | further results
O=C(O)Cc1ccc(CCNS(=O)(=O)c2ccc(Cl)cc2)cc1 [BM 13505] | inhibit gastric lesions |  |  | 
CC(C)COc1ccc(Cl)cc1Nc1nc(-c2nc3ccc(CN4CCCC4)cc3[nH]2)cs1 [Example 181, N-{5-Chloro-2-[(2-methylpropyl)oxy]phenyl)-4-[5-(1-pyrrolidinylmethyl)-1H-benzimidazol-2-yl]-1,3-thiazol-2-amine] |  | > 1000 nM | ≤ 1000 nM | 
CC(C)COc1ccc(Cl)cc1Nc1nc(-c2nc3ccc(CN4CCCCC4)cc3[nH]2)cs1 [Example 182, N-{5-Chloro-2-[(2-methylpropyl)oxy]phenyl}-4-[5-(1-piperidinylmethyl)-1H-benzimidazol-2-yl]-1,3-thiazol-2-amine] |  | > 1000 nM | ≤ 1000 nM | 
CC(C)COc1ccc(Cl)cc1Nc1nc(-c2nc3ccc(CN4CCN(C)CC4)cc3[nH]2)cs1 [Example 183, N-{5-Chloro-2-[(2-methylpropyl)oxy]phenyl}-4-{5-[(4-methyl-1-piperazinyl)methyl]-1H-benzimidazol-2-yl}-1,3-thiazol-2-amine] |  | < 1000 nM | ≤ 31.6 nM | 
Cc1cc(Cl)ccc1S(=O)(=O)NC[C@H]1C2CCC(CC2)[C@@H]1/C=C\CCCC(=O)O [ONO-8711] |  |  |  | hyperalgesia and allodynia [3]: reduces hyperalgesia and allodynia; mechanical hyperalgesia [4]: inhibits mechanical hyperalgesia
O=C(O)CCc1ccccc1CC1C2CCC(O2)C1c1nc(C(=O)NCCCCC2CCCCC2)co1 (stereo not shown) [SQ 33961] | inhibit gastric lesions |  |  | 
